Data as given in patent US11286268B1, “EIF4E-inhibiting compounds and methods” (EFFECTOR THERAPEUTICS, INC., priority 2019, dated 2022).
Where two headings read alike, the source gives them in different places.

Target: recombinant eIF4E (Homo sapiens (Human), UniProt P06730)
Assay: Fluorescence polarization competition assay for eIF4E binding potency
In short: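 FP readout; IC50 fit from 8-point, 3-fold series. 75 nM eIF4E + 20 nM ATTO-550-labelled m7GDP probe, Tris pH 7.5/NaCl/DTT/Tween buffer, 1% DMSO final. 30 min RT equilibration, light-protected.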

[1] = fluorescence polarization competition, 75 nM recombinant eIF4E, 20 nM EDA-m7GDP-ATTO-550, IC50 class, read-out: elF4E FP
[2] = inhibition of eIF4E/EDA-m7GDP-ATTO-550 binding, calculated IC50 values, Table 4B, read-out: IC50
[3] = inhibition of eIF4E/EDA-m7GDP-ATTO-550 binding by 50%, Table 4B calculated values, read-out: IC50

Chain of recombinant eIF4E (P06730 whole entry): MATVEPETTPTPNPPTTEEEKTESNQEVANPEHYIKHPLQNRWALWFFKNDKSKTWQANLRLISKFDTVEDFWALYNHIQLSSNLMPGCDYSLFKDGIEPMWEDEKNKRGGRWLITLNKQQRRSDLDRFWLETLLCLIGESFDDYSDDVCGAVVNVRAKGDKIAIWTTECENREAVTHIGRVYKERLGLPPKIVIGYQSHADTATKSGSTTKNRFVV

Compound	IC50 [1] [nM]	IC50 [2] [nM]	IC50 [3] [nM]
Cc1cc(-c2cc(Cl)ccc2OCCn2c(C)nc3cc(C(F)(F)F)c(N4CCN(C)CC4)c(C#N)c3c2=O)cc(C(=O)O)n1 [compound 1222]	< 50	3.02	
Cc1cc(-c2nc3c(=O)n(CCOc4ccc(Cl)cc4-c4ccc(C(N)=O)c5c(C(=O)O)csc45)c(C)nc3cc2C(F)(F)F)ccn1 [788Fb]	< 50		4.35
CCc1cc(-c2cc(Cl)ccc2OCCn2c(C)nc3cc(C(F)(F)F)c(N4CCN(C)CC4)c(C#N)c3c2=O)cc(C(=O)O)n1 [compound 1223]	< 50	2.79	
Cc1nc2cnc(C3CCCN(CC(F)F)C3)c(C#N)c2c(=O)n1CC#Cc1ccc(Cl)cc1-c1ccnc2c(C(=O)O)csc12 (centres unmarked) [compound 1574]		13.4	
Cc1cc(-c2cc(Cl)ccc2OCCn2c(C)nc3cc(C(F)(F)F)c(CN4CCN(CC(F)F)CC4)c(C#N)c3c2=O)c2scc(C(=O)O)c2n1 [compound 739]	< 50		30.8
Cc1nc2cnc(N(C)C3CCN(CCOC(F)(F)F)CC3)c(C#N)c2c(=O)n1CC#Cc1ccc(Cl)cc1-c1ccnc2c(C(=O)O)csc12 [compound 1170]	< 50		17.1
Cc1nc2cnc(N3CCN(C4CC4)C4(CC4)C3)c(C#N)c2c(=O)n1CCOc1ccc(Cl)cc1-c1ccnc2c(C(=O)O)csc12 [compound 1646]		26.3	
Cc1nc2cnc(N(C)C3CCN(CC(F)(F)c4ccn(C)n4)CC3)c(C#N)c2c(=O)n1CC#Cc1ccc(Cl)cc1-c1ccnc2c(C(=O)O)csc12 [compound 1536]		18.3	
CCN(CC)S(=O)(=O)c1ccc2nc(C)n(CCOc3ccc(Cl)cc3-c3ccnc4c(C(=O)O)csc34)c(=O)c2c1C#N [compound 250]	< 50		43.7
Cc1nc2cnc(N(C)C3CCN(CC(C)(F)F)CC3)c(C#N)c2c(=O)n1CC#Cc1ccc(Cl)cc1-c1ccnc2c(C(=O)NS(=O)(=O)c3ccc(C(F)(F)F)nc3)csc12 [compound 1674]		6.5	
Cc1nc2cnc(N3CCN(C)C4CC43)c(C#N)c2c(=O)n1CCOc1ccc(Cl)cc1-c1ccnc2c(C(=O)O)csc12 (centres unmarked) [compound 1301]		15.5	
Cc1nc2cnc(N(C)C3CCN(CC(F)(F)F)CC3)c(C#N)c2c(=O)n1CC#Cc1ccc(Cl)cc1-c1ccnc2c(C(=O)NS(=O)(=O)C3CC(F)(F)C3)csc12 [compound 1677]		12.9	
Cc1cc(-c2cc(Cl)ccc2OCCn2c(C)nc3cnc(-c4cc(F)ccc4C)c(C#N)c3c2=O)c2scc(C(=O)O)c2n1 [compound 1052]	< 50		5.46
N#Cc1cc2c(=O)n(CCOc3ccc(Cl)cc3-c3cc(C(=O)O)c(F)cc3F)cnc2cn1 [compound 86]	> 1000		49700
CC(COc1ccc(Cl)cc1-c1cccc(C(=O)O)c1)n1cnc2cnc(C#N)cc2c1=O (centres unmarked) [compound 129]	> 1000		3100
Cc1cc(-c2cc(Cl)ccc2OCCn2c(C)nc3cc(C(F)F)c(N4CC(F)(F)C4)c(C#N)c3c2=O)c2scc(C(=O)O)c2n1 [compound 799]	< 50		9.35
Cc1cc(-c2cc(Cl)ccc2OCCn2c(C)cc3cnc(-c4cc(F)cnc4C)c(C#N)c3c2=O)c2scc(C(=O)O)c2n1 [compound 1001]	< 50		31.2
CCN(c1ncc2nc(C)n(CC#Cc3ccc(Cl)cc3-c3ccnc4c(C(=O)O)csc34)c(=O)c2c1C#N)C1CCN([C@H]2C[C@@H](OC(F)(F)F)C2)CC1 [compound 1775]		32.1	
N#Cc1cc2c(=O)n(CCOc3ccc(Cl)cc3-c3ccc(C(=O)O)o3)cnc2cn1 [compound 79]	> 1000		1650
Cc1nc2cc(C(F)(F)F)cc(Cl)c2c(=O)n1CCOc1ccc(Cl)cc1-c1ccnc2c(C(=O)O)csc12 [compound 198]	50 to 1000		124
N#Cc1cncc2nc(C(F)F)n(CCOc3ccc(Cl)cc3-c3ccnc4c(C(=O)O)csc34)c(=O)c12 [compound 39]	50 to 1000		116
